# Assay results reported in patent US8449930B2, “Drug or dermatological composition containing an avocado peptide extract for treating and preventing pruritus” (Laboratoires Expanscience, priority 2008, dated 2013).
# Experiments:
# Assay type in all cases: cell-based
# [1] = test system: Rat peritoneal mast cells; assay: Release of histamine by mast cells induced by substance P
# Method: (§1) The studies presented below were carried out on rat peritoneal mast cells. These cells have the same features as cutaneous mast cells and thus constitute an experimental model representative of human skin.
# Rat peritoneal mast cells (10,000 cells in suspension/250 μl Tyrode's buffer) were incubated for […] at 37° C. in the presence or absence of 0.05%, 0.5% and 1% (w/v) avocado peptide extract, obtained in example 1, or 10 mM calcium, used as the reference histamine release inhibitor.
# The cells were then stimulated for 10 minutes by 10 μM substance P (Neosystem) in the presence of 0.3 mM calcium.
# The reaction was quenched by centrifugation and the supernatants and cell pellets were taken up in 0.8 N perchloric acid in order to assay histamine using the spectrofluorometric method.
# The quantities of histamine released were expressed as a percentage of release (quantity in supernatants/total quantity).
# [2] = test system: Normal human epidermal keratinocytes (NHEK); assay: Synthesis of GAGs by keratinocytes (35S-sulfate incorporation); details: 72 hours
# Method: (§2) Normal human epidermal keratinocytes (NHEK) were pre-cultured for 24 hours at 37° C. and 5% CO2 in low-calcium (0.09 mM) SFM (Invitrogen) medium supplemented with 0.25 ng/ml EGF (Invitrogen), 25 μg/ml pituitary extract (Invitrogen) and 25 μg/ml gentamycin (Sigma).
# (§3) The keratinocytes were then treated for 72 hours with the avocado peptide extract (0.05% DM and 0.005% DM), according to example 1, or by the references: 0.1 μM retinoic acid (Sigma) or 1.5 mM calcium (Prolabo). Two identical series were prepared in order to assay both the release/production of hyaluronic acid and the incorporation of […] in the GAGs fraction. The batch corresponding to the assay of the GAGs was supplemented with ^35S-sulfate (Amersham) after 48 hours of culture (labeling during the last 24 hours).
# At the end of the treatment, in the batch corresponding to the assay of GAGs, the incorporated radioactivity was counted and thus the variation in the synthesis of GAGs in relation to the control was analyzed.
# (§4) Intergroup comparisons were carried out by analysis of variance using Dunnett's multiple comparison test.
# [3] = test system: Rat peritoneal mast cells; assay: Release of tryptase by mast cells induced by calcium ionophore A23187; details: 50 μM quercetin
# Method: as §1
# Rat peritoneal mast cells (2×10^3 cells/ml) were incubated for 30 minutes at 37° C. in the presence or absence of 0.005% (w/v) avocado peptide extract (obtained in example 1) or 50 μM quercetin (Sigma), the reference tryptase release inhibitor. The cells were then stimulated for 15 minutes by 0.5 μM calcium ionophore A23187 (Millipore). The calcium ionophore is used to induce the release of tryptase (it induces an influx and mobilization of intracellular calcium). The reaction was quenched by centrifugation at 4° C.
# Tryptase release was evaluated by assaying tryptase in the cell pellets and supernatants by means of the Mast Cell Degranulation Assay Kit (Millipore). This test is based on the spectrophotometric detection of the chromophore p-nitroaniline (pNA) after cleavage of the tosyl-gly-pro-lys-pNA substrate by tryptase.
# PAR-2 = PAR-2 gene expression in reconstructed epidermises (cDNA arrays); details: 1 μM retinoic acid, 6 hours
# Method: Seventeen-day reconstructed epidermises (Skinethic) were treated systemically with 0.04% (w/v) avocado peptide extract (obtained in example 1) or 1 μM retinoic acid (Sigma, positive reference) for 6 hours.
# Gene expression was analyzed using standard simplified DNA arrays. These microarrays involved spotting specific cDNA markers of interest on nylon membranes. Analysis was carried out according to a suitable miniaturized and optimized technology based on the use of messenger RNA and ^33P labeling.
# When culturing was complete, the epidermises were rinsed with phosphate buffered saline (PBS) solution. The total RNA of the epidermises was then extracted and purified using TRI Reagent (Sigma) according to a standardized protocol. RNA quantity and quality were then evaluated using an Agilent 2100 bioanalyzer. The mRNA of each culture was reverse transcribed using oligo(dT) and a ^33P-labeled deoxyribonucleotide triphosphate. Multiple labeled cDNA “target” sequences were prepared for each culture. These targets were then hybridized, under optimized conditions, with cDNA “probes” in excess bound to membranes. After washing, the relative quantity of labeled target was measured by direct counting using a Phosphorlmager.
# The membranes were analyzed using suitable software.
# [4] = test system: Normal human epidermal keratinocytes (NHEK); assay: Synthesis/release of hyaluronic acid by keratinocytes (ELISA); details: 0.1 μM retinoic acid, 72 hours, culture supernatants
# Method: as §2, §3
# In the batch corresponding to the assay of hyaluronic acid, at the end of the treatment, the culture supernatants were collected and hyaluronic acid was assayed using a specific modified ELISA test (Biogenic).
# as §4
compound,measurement,setting,value
[Ca+2] [calcium],Histamine (% release) Mean,"[1]; 10 mM calcium (reference inhibitor), stimulated 10 min by 10 μM substance P",16 % release
same,Percentage inhibition of histamine release,"[1]; calcium, 10 μM in table 8, 10 mM in text, vs stimulated control (substance P)",−78%
same,Incorporation of 35S-sulfate (cpm),[2]; 1.5 mM calcium,17753 cpm
O=c1c(O)c(-c2ccc(O)c(O)c2)oc2cc(O)cc(O)c12 [quercetin],Tryptase (ng/ml) Mean,"[3]; 30 min preincubation, stimulated 15 min by 0.5 μM calcium ionophore A23187",44 ng/mL
same,inhibition at 50 µM,"[3]; Rattus norvegicus, Mast cell, vs stimulated control (Ca ionophore), read-out: Percentage inhibition of tryptase release",47%
CC1=C(/C=C/C(C)=C/C=C/C(C)=C/C(=O)O)C(C)(C)CCC1 [retinoic acid],PAR-2 (relative expression) Mean,PAR-2; systemic treatment,3
same,Percentage inhibition of PAR-2 gene expression,PAR-2; vs control epidermises,−29%
same,HA,[4],11503 ng/mL
same,Incorporation of 35S-sulfate (cpm),[2]; 0.1 μM retinoic acid,13217 cpm
same,Percentage (change in synthesis of GAGs vs control cells),[2]; 0.1 μM retinoic acid,+18%
